Measured values: patent US20110263662A1, “1,2-DIAMIDO-ETHYLENE DERIVATIVES AS OREXIN ANTAGONISTS” (priority 2007, published 2011)

Columns and labels:
human orexin-1 receptor = molecular target: T1, human orexin-1 receptor (Homo sapiens, UniProt O43613); assay: FLIPR intracellular calcium assay, orexin receptor antagonistic activity (OX1); format: cell-based; settings: CHO cells expressing human orexin-1 receptor, 3 nM orexin-A
T1 construct: expressed in transfected cells; host or cells: CHO (Chinese hamster ovary) cells, grown under G418 selection
T1 sequence (O43613 1-425): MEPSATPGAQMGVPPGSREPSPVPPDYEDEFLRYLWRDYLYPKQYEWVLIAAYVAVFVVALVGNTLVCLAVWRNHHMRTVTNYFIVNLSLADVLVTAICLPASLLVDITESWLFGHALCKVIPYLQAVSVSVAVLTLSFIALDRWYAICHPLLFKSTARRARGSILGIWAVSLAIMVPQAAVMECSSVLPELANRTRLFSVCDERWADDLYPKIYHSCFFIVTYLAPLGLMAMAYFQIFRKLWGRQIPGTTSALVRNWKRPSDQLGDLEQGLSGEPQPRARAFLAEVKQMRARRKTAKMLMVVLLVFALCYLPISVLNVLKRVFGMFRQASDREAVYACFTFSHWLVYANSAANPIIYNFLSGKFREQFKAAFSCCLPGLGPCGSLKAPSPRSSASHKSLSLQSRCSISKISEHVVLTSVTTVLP
Experimental: (§1) Chinese hamster ovary (CHO) cells expressing the human orexin-1 receptor and the human orexin-2 receptor, respectively, are grown in culture medium (Ham F-12 with L-Glutamine) containing 300 μg/ml G418, 100 U/ml penicillin, 100 μg/ml streptomycin and 10% heat inactivated fetal calf serum (FCS). The cells are seeded at 20′000 cells/well into 384-well black clear bottom sterile plates (Greiner). The seeded plates are incubated overnight at 37° C. in 5% CO2.
(§2) Human orexin-A as an agonist is prepared as 1 mM stock solution in MeOH:water (1:1), diluted in HBSS containing 0.1% bovine serum albumin (BSA), NaHCO3:0.375 g/l and 20 mM HEPES for use in the assay at a final concentration of 3 nM.
(§3) Antagonists are prepared as 10 mM stock solution in DMSO, then diluted in 384-well plates, first in DMSO, then in HBSS containing 0.1% bovine serum albumin (BSA), NaHCO3: 0.375 g/l and 20 mM HEPES.
(§4) On the day of the assay, 50 μl of staining buffer (HBSS containing 1% FCS, 20 mM HEPES, NaHCO3: 0.375 g/l, 5 mM probenecid (Sigma) and 3 μM of the fluorescent calcium indicator fluo-4 AM (1 mM stock solution in DMSO, containing 10% pluronic) is added to each well.
(§5) The 384-well cell-plates are incubated for 50 min at 37° C. in 5% CO2 followed by equilibration at RT for 30-120 min before measurement.
(§6) Within the Fluorescent Imaging Plate Reader (FLIPR2 or FLIPR Tetra, Molecular Devices), antagonists are added to the plate in a volume of 10 μl/well, incubated for 10 min and finally 10 μl/well of agonist is added. Fluorescence is measured for each well at 1 second intervals, and the height of each fluorescence peak is compared to the height of the fluorescence peak induced by 3 nM orexin-A with vehicle in place of antagonist. For each antagonist, the IC50 value (the concentration of compound needed to inhibit 50% of the agonistic response) is determined. Optimized conditions may be achieved by adjustment of pipetting speed and cell splitting regime. The calculated IC50 values of the compounds may fluctuate depending on the daily cellular assay performance. Fluctuations of this kind are known to those skilled in the art.

human orexin-2 receptor = molecular target: T2, human orexin-2 receptor (Homo sapiens, UniProt O43614); assay: FLIPR intracellular calcium assay, orexin receptor antagonistic activity (OX2); format: cell-based; settings: CHO cells expressing human orexin-2 receptor, 3 nM orexin-A
T2 construct: expressed in transfected cells; host or cells: CHO (Chinese hamster ovary) cells, grown under G418 selection
T2 sequence (O43614 1-444): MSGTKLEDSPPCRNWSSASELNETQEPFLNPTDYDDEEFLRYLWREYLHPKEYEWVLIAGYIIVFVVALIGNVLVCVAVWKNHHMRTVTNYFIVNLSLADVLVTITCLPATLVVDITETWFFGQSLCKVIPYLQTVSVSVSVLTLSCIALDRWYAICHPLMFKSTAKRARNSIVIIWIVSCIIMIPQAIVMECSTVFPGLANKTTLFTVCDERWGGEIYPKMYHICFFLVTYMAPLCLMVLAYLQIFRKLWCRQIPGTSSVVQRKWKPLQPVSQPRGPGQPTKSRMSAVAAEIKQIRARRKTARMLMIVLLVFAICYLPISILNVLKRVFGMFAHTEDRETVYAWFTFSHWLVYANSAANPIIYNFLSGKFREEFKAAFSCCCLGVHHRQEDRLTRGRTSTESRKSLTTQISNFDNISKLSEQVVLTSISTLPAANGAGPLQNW
Experimental: as §1, §2, §3, §4, §5, §6

[1] = FLIPR 2, geometric mean from n = 2 values
[2] = measured with FLIPR Tetra (marked *)

Compound Cc1nc(C(=O)N(C)C(CNC(=O)c2c(C)nc3sccn23)C2CC2)c(-c2ccccc2)s1 (racemic) [Example 47, 6-Methyl-imidazo[2,1-b]thiazole-5-carboxylic acid {(RS)-2-cyclopropyl-2-[methyl-(2-methyl-5-phenyl-thiazole-4-carbonyl)-amino]ethyl}-amide] has an IC50 (human orexin-1 receptor; measured with FLIPR 2) of 0.112 µM and an IC50 (human orexin-2 receptor; measured with FLIPR 2) of 0.05 µM.

Cc1nc(C(=O)NC(CNC(=O)c2c(C)nc3sccn23)C2CC2)c(-c2ccccc2)s1 (racemic) [Example 49, 6-Methyl-imidazo[2,1-b]thiazole-5-carboxylic acid {(RS)-2-cyclopropyl-2-[(2-methyl-5-phenyl-thiazole-4-carbonyl)-amino]-ethyl}-amide] was tested, and the IC50 (human orexin-1 receptor; measured with FLIPR 2) was 0.037 µM and the IC50 (human orexin-2 receptor; measured with FLIPR 2) was 0.033 µM.

In the case of Cc1nc(C(=O)N(Cc2ccccc2)C(CNC(=O)c2c(C)nc3sccn23)Cc2ccccc2)c(-c2ccccc2)s1 (racemic) [Example 71, 6-Methyl-imidazo[2,1-b]thiazole-5-carboxylic acid {(RS)-2-[benzyl-(2-methyl-5-phenyl-thiazole-4-carbonyl)-amino]-3-phenyl-propyl}-amide], the IC50 (human orexin-1 receptor; measured with FLIPR 2) is reported as 0.027 µM and the IC50 (human orexin-2 receptor; measured with FLIPR 2) is reported as 0.05 µM.

For Cc1nc2sccn2c1C(=O)NCC(Cc1ccccc1)NC(=O)c1ccccc1-c1ccccc1 (racemic) [Example 73, 6-Methyl-imidazo[2,1-b]thiazole-5-carboxylic acid {(RS)-2-[(biphenyl-2-carbonyl)-amino]-3-phenyl-propyl}-amide], the IC50 (human orexin-1 receptor; measured with FLIPR 2) was 0.119 µM and the IC50 (human orexin-2 receptor; measured with FLIPR 2) was 0.019 µM.

Compound Cc1nc(C(=O)NC(CNC(=O)c2cccc3occc23)CC(C)C)c(-c2ccccc2)s1 (racemic) [Example 83, 2-Methyl-5-phenyl-thiazole-4-carboxylic acid ((RS)-1-{[(benzofuran-4-carbonyl)-amino]-methyl}-3-methyl-butyl)-amide] has an IC50 (human orexin-1 receptor; measured with FLIPR 2) of 0.437 µM and an IC50 (human orexin-2 receptor; measured with FLIPR 2) of 0.303 µM.

Compound Cc1nc2sccn2c1C(=O)NCC(CC(C)C)NC(=O)c1ccccc1-c1ccccc1 (racemic) [Example 88, 6-Methyl-imidazo[2,1-b]thiazole-5-carboxylic acid {(RS)-2-[(biphenyl-2-carbonyl)-amino]-4-methyl-pentyl}-amide] has an IC50 (human orexin-1 receptor; measured with FLIPR 2) of 0.084 µM and an IC50 (human orexin-2 receptor; measured with FLIPR 2) of 0.046 µM.

Cc1nc2sccn2c1C(=O)NCC(C)N(Cc1ccccc1)C(=O)c1ccccc1-c1ccccc1 (racemic) [Example 97, 6-Methyl-imidazo[2,1-b]thiazole-5-carboxylic acid {(RS)-2-[benzyl-(biphenyl-2-carbonyl)-amino]-propyl}-amide] was tested, and the IC50 (human orexin-1 receptor; measured with FLIPR 2) was 0.0057 µM and the IC50 (human orexin-2 receptor; measured with FLIPR 2) was 0.0058 µM.

Cc1nc2sccn2c1C(=O)NCC(C(C)C)N(Cc1ccccc1)C(=O)c1ccccc1-c1ccccc1 (racemic) [Example 99, 6-Methyl-imidazo[2,1-b]thiazole-5-carboxylic acid {(RS)-2-[benzyl-(biphenyl-2-carbonyl)-amino]-3-methyl-butyl}-amide] showed an IC50 (human orexin-1 receptor; measured with FLIPR 2) of 0.114 µM and an IC50 (human orexin-2 receptor; measured with FLIPR 2) of 0.718 µM.

Cc1nc(C(=O)N(CCNC(=O)c2cccc3occc23)Cc2ccccc2)c(-c2ccc(F)cc2)s1 [Example 2, 5-(4-Fluoro-phenyl)-2-methyl-thiazole-4-carboxylic acid {2-[(benzofuran-4-carbonyl)-amino]-ethyl}-benzyl-amide] was tested, and the IC50 (human orexin-1 receptor; [1]) was 0.242 µM and the IC50 (human orexin-2 receptor; [1]) was 0.035 µM.

Cc1nc(C(=O)N(C)CCNC(=O)c2cccc3occc23)c(-c2ccc(F)cc2)s1 [Example 3, 5-(4-Fluoro-phenyl)-2-methyl-thiazole-4-carboxylic acid {2-[(benzofuran-4-carbonyl)-amino]-ethyl}-methyl-amide] gave an IC50 (human orexin-1 receptor; [1]) of 0.15 µM and an IC50 (human orexin-2 receptor; [1]) of 0.027 µM.

Cc1nc(C(=O)N(CCNC(=O)c2c(C)nc3sccn23)Cc2ccc(F)cc2)c(-c2ccccc2)s1 [Example 18, 6-Methyl-imidazo[2,1-b]thiazole-5-carboxylic acid {2-[(4-fluoro-benzyl)-(2-methyl-5-phenyl-thiazole-4-carbonyl)-amino]-ethyl}-amide] showed an IC50 (human orexin-1 receptor; measured with FLIPR 2) of 0.0078 µM and an IC50 (human orexin-2 receptor; measured with FLIPR 2) of 0.011 µM.

For Cc1nc(C(=O)N(CCNC(=O)c2cccc3c2OCCO3)Cc2ccc(C(F)(F)F)cc2)c(-c2ccccc2)s1 [Example 25, 2-Methyl-5-phenyl-thiazole-4-carboxylic acid {2-[(2,3-dihydro-benzo[1,4]dioxine-5-carbonyl)-amino]-ethyl}-(4-trifluoromethyl-benzyl)-amide], the IC50 (human orexin-1 receptor; measured with FLIPR 2) was 0.075 µM and the IC50 (human orexin-2 receptor; measured with FLIPR 2) was 0.012 µM.

Cc1nc(C(=O)N(CCNC(=O)c2cccc3c2OCCO3)CC(C)C)c(-c2ccccc2)s1 [Example 31, 2-Methyl-5-phenyl-thiazole-4-carboxylic acid {2-[(2,3-dihydro-benzo[1,4]dioxine-5-carbonyl)-amino]-ethyl}-isobutyl-amide] gave an IC50 (human orexin-1 receptor; measured with FLIPR 2) of 0.504 µM and an IC50 (human orexin-2 receptor; measured with FLIPR 2) of 0.085 µM.

Compound Cc1ccc(-c2sc(Br)nc2C(=O)N(CCNC(=O)c2c(C)nc3sccn23)C2CC2)cc1 [Example 111, 6-Methyl-imidazo[2,1-b]thiazole-5-carboxylic acid {2-[(2-bromo-5-p-tolyl-thiazole-4-carbonyl)-cyclopropyl-amino]ethyl}-amide] has an IC50 (human orexin-1 receptor; [2]) of 0.039 µM and an IC50 (human orexin-2 receptor; [2]) of 0.023 µM.

COc1cccc(-c2sc(C)nc2C(=O)N(CCNC(=O)c2nn(C)c3ccccc23)C2CC2)c1 [Example 140, 1-Methyl-1H-indazole-3-carboxylic acid (2-{cyclopropyl-[5-(3-methoxy-phenyl)-2-methyl-thiazole-4-carbonyl]-amino}-ethyl)-amide] gave an IC50 (human orexin-1 receptor; [2]) of 0.098 µM and an IC50 (human orexin-2 receptor; [2]) of 0.068 µM.

Cc1cccc(-c2ccccc2C(=O)N(CCNC(=O)c2nn(C)c3ccccc23)C2CC2)c1 [Example 144, 1-Methyl-1H-indazole-3-carboxylic acid {2-[cyclopropyl-(3′-methyl-biphenyl-2-carbonyl)-amino]-ethyl}-amide] was tested, and the IC50 (human orexin-1 receptor; [2]) was 0.095 µM and the IC50 (human orexin-2 receptor; [2]) was 0.02 µM.

Cc1nc(C(=O)N(CCNC(=O)c2cccc3occc23)C2CC2)c(-c2ccc(C)c(C)c2)s1 [Example 165, 5-(3,4-Dimethyl-phenyl)-2-methyl-thiazole-4-carboxylic acid {2-[(benzofuran-4-carbonyl)-amino]-ethyl}-cyclopropyl-amide] was tested, and the IC50 (human orexin-1 receptor; [2]) was 0.002 µM and the IC50 (human orexin-2 receptor; [2]) was 0.0043 µM.

With Cc1cccc(-c2sc(C3CC3)nc2C(=O)N(CCNC(=O)c2c(C)nc3sccn23)CC2CC2)c1 [Example 171, 6-Methyl-imidazo[2,1-b]thiazole-5-carboxylic acid {2-[cyclopropylmethyl-(2-cyclopropyl-5-m-tolyl-thiazole-4-carbonyl)-amino]-ethyl}-amide] the IC50 (human orexin-1 receptor; [2]) was 0.016 µM and the IC50 (human orexin-2 receptor; [2]) was 0.012 µM.

For COc1cccc(-c2sc(Br)nc2C(=O)N(CCNC(=O)c2c(C)nc3sccn23)CC2CC2)c1 [Example 179, 6-Methyl-imidazo[2,1-b]thiazole-5-carboxylic acid (2-{[2-bromo-5-(3-methoxy-phenyl)-thiazole-4-carbonyl]-cyclopropylmethyl-amino}-ethyl)-amide], the IC50 (human orexin-1 receptor; [2]) was 0.01 µM and the IC50 (human orexin-2 receptor; [2]) was 0.01 µM.
